Active and inactive are the calls of the source. No cut-off for these calls is given here. Starred links: 1 amine or outer side, 2 acyl side, 3 side chain; linkers in the order of their positions; H or OH if unused. Non-standard residues stand in square brackets, D forms with d. Residues, ends and D or L forms follow the SMILES beside them. Phe(4-CF3-diazirinyl) = N[C@@H](Cc1ccc(C2(C(F)(F)F)N=N2)cc1)C(=O)O; X1 = O=C([C@H](Cc1ccc(C(O)C(F)(F)F)cc1)N[*:1])[*:2]; Dip = N[C@H](C(=O)O)C(c1ccccc1)c1ccccc1
Legend:
[1] = molecular target: Amyloid-beta precursor protein (Homo sapiens) (UniProt P05067); test: Binding affinity to amyloid beta (1 to 42) (unknown origin) assessed as intensity of peak for compound-amyloid beta (1 to 16) adduct at 200 uM incubated for 10 mins irradiated with UV light for 10 mins by MALDI-TOF-MS method
[2] = molecular target: Amyloid-beta precursor protein (Homo sapiens) (UniProt P05067); test: Binding affinity to amyloid beta (1 to 42) (unknown origin) assessed as fluorescence intensity at 50 uM by Thioflavin-T fluorescence assay (reference value: 100%)
Insulin (Homo sapiens) = Insulin (Homo sapiens) (UniProt P01308); test: Binding affinity to human insulin at 200 uM incubated for 2 hrs irradiated with UV light for 10 mins by MALDI-TOF-MS method
[3] = molecular target: Amyloid-beta precursor protein (Homo sapiens) (UniProt P05067); test: Inhibition of fibril formation of amyloid beta (1 to 42) (unknown origin) at 50 uM incubated for 20 mins followed by irradiation with UV light for 10 mins and measured after 12 hrs by atomic force microscopy
[4] = molecular target: Amyloid-beta precursor protein (Homo sapiens) (UniProt P05067); test: Binding affinity to amyloid beta (1 to 42) (unknown origin) assessed as intensity of peak for compound-amyloid beta (17 to 28) adduct at 200 uM incubated for 20 to 120 mins irradiated with UV light for 10 mins by MALDI-TOF-MS method (reference value: 10%)
[5] = molecular target: Amyloid-beta precursor protein (Homo sapiens) (UniProt P05067); test: Binding affinity to amyloid beta (1 to 42) (unknown origin) assessed as intensity of peak for compound-amyloid beta (1 to 16) adduct at 200 uM incubated for 20 mins irradiated with UV light for 10 mins by MALDI-TOF-MS method (reference value: 10%)
[6] = molecular target: Amyloid-beta precursor protein (Homo sapiens) (UniProt P05067); test: Binding affinity to amyloid beta (1 to 42) (unknown origin) assessed as intensity of peak for compound-amyloid beta (29 to 42) adduct at 200 uM incubated for 20 to 120 mins irradiated with UV light for 10 mins by MALDI-TOF-MS method (reference value: 10%)
[7] = molecular target: T1, Angiotensinogen (Homo sapiens) (UniProt P01019); test: Binding affinity to angiotensin-4 (unknown origin) at 200 uM incubated for 2 hrs irradiated with UV light for 10 mins by MALDI-TOF-MS method
T1 sequence (whole entry): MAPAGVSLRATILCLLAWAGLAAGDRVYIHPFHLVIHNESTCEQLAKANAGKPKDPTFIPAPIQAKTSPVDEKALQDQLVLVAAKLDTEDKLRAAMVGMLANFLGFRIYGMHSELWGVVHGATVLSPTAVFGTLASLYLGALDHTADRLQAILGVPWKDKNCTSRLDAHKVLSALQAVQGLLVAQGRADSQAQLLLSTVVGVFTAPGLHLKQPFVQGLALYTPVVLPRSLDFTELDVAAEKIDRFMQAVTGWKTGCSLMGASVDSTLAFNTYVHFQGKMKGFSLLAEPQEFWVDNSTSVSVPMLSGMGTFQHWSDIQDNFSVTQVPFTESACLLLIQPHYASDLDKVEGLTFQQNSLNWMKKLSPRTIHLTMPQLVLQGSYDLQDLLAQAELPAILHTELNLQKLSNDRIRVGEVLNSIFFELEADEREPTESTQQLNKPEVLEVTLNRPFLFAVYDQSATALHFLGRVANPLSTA

[8] = molecular target: Amyloid-beta precursor protein (Homo sapiens) (UniProt P05067); test: Binding affinity to amyloid beta (1 to 42) (unknown origin) assessed as fluorescence intensity at 50 uM irradiated with UV light for 10 mins and measured up to 4 hrs by Thioflavin-T fluorescence assay (reference value: 100%)
[9] = molecular target: Amyloid-beta precursor protein (Homo sapiens) (UniProt P05067); test: Binding affinity to amyloid beta (1 to 42) (unknown origin) assessed as compound-amyloid beta (4 to 11) adduct formation at Tyr10 residue at 200 uM incubated for 2 hrs irradiated with UV light for 10 mins by LC-MS/MS method
[10] = molecular target: Amyloid-beta precursor protein (Homo sapiens) (UniProt P05067); test: Binding affinity to amyloid beta (1 to 16) (unknown origin) assessed as intensity of peak for compound-amyloid beta (1 to 16) adduct at 200 uM irradiated with UV light for 10 mins by MALDI-TOF-MS method
[11] = molecular target: T2, Neuropeptide S (Homo sapiens) (UniProt P0C0P6); test: Binding affinity to neuropeptide-S (unknown origin) at 200 uM incubated for 2 hrs irradiated with UV light for 10 mins by MALDI-TOF-MS method
T2 sequence (whole entry): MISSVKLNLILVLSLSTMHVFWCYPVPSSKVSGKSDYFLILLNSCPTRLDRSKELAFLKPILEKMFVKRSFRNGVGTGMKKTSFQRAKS

[12] = molecular target: Amyloid-beta precursor protein (Homo sapiens) (UniProt P05067); test: Inhibition of amyloid beta (1 to 42) (unknown origin)-mediated cytotoxicity in rat PC12 cells treated with 20 mins compound pre-treated Abeta (1 to 42) followed by UV irradiation for 10 mins […] and measured after 48 hrs by WST8 assay; type: cell-based; conditions: PC-12
[13] = molecular target: Amyloid-beta precursor protein (Homo sapiens) (UniProt P05067); test: Binding affinity to amyloid beta (1 to 42) (unknown origin) assessed as intensity of peak for compound-amyloid beta (1 to 16) adduct at 200 uM incubated for 60 mins irradiated with UV light for 10 mins by MALDI-TOF-MS method (reference value: 10%)
[14] = molecular target: Amyloid-beta precursor protein (Homo sapiens) (UniProt P05067); test: Binding affinity to amyloid beta (1 to 42) (unknown origin) assessed as intensity of peak for compound-amyloid beta (1 to 16) adduct at 200 uM incubated for 120 mins irradiated with UV light for 10 mins by MALDI-TOF-MS method (reference value: 10%)
[15] = molecular target: Amyloid-beta precursor protein (Homo sapiens) (UniProt P05067); test: Inhibition of amyloid beta (1 to 42) (unknown origin)-mediated cytotoxicity in rat PC12 cells treated with 30 mins compound pre-treated Abeta (1 to 42) followed by UV irradiation for 10 mins […] and measured after 48 hrs by WST8 assay; type: cell-based; conditions: PC-12
[16] = molecular target: Amyloid-beta precursor protein (Homo sapiens) (UniProt P05067); test: Binding affinity to amyloid beta (1 to 42) (unknown origin) assessed as fluorescence intensity at 50 uM irradiated with UV light for 10 mins and measured after 60 mins by Thioflavin-T fluorescence assay (reference value: 100%)

Amyloid-beta precursor protein (Homo sapiens), sequence (P05067 whole entry): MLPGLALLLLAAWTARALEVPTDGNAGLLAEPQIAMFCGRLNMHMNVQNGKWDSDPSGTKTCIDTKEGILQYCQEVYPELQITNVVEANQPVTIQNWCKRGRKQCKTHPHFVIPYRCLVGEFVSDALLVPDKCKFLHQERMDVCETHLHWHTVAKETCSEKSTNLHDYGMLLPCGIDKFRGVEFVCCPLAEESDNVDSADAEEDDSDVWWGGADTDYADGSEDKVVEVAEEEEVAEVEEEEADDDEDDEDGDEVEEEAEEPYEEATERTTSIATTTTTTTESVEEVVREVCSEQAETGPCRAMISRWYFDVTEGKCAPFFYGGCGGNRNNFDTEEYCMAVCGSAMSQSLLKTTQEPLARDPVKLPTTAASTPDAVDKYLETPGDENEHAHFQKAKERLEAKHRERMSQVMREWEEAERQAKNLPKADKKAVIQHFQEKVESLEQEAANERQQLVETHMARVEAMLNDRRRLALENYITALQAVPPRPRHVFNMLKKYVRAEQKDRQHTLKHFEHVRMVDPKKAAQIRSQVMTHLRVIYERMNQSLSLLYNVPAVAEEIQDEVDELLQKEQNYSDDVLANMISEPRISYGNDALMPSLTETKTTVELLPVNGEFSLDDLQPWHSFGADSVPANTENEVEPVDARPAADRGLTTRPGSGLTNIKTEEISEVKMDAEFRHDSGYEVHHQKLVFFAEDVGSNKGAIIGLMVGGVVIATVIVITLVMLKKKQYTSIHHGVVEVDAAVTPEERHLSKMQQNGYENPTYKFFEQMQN
Insulin (Homo sapiens), sequence (P01308 whole entry): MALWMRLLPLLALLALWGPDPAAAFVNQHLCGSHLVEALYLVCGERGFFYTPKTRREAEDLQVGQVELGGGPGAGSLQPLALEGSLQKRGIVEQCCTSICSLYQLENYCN

In the case of `CC(C)(C)OC(=O)N[C@@H](Cc1ccc(C2(C(F)(F)F)N=N2)cc1)C(=O)O`, the Activity [1] is reported as “inactive”.
Work on `CC(C)C[C@H]1NC(=O)[C@@H](CCCCN)NC(=O)[C@@H](Cc2ccccc2)NC(=O)[C@@H](C(c2ccccc2)c2ccccc2)NC(=O)[C@@H](C(C)C)NC1=O` yielded an Activity [2] of 68%.
In the case of `C[C@@H]1NC(=O)[C@H](CC(=O)O)NC(=O)[C@H](CCCNC(=N)N)NC(=O)[C@H](Cc2ccc(C3(C(F)(F)F)N=N3)cc2)NC(=O)[C@H](CCC(=O)O)NC1=O` (cyclo(AE[Phe(4-CF3-diazirinyl)]RD)), the Activity [1] is reported as “inactive”.
With `CC(C)C[C@@H]1NC(=O)[C@H](CCCCN)NC(=O)[C@H](Cc2ccc(C3(C(F)(F)F)N=N3)cc2)NC(=O)[C@H](C(c2ccccc2)c2ccccc2)NC(=O)[C@H](C(C)C)NC1=O` (cyclo([Dip][Phe(4-CF3-diazirinyl)]KLV)) the Activity (Insulin (Homo sapiens)) was “inactive”, the inhibition [3] was “Active” and the Activity [4] was “inactive”. For the same molecule, the Activity [5] was 10%, the Activity [6] was “inactive” and the Activity [7] was “inactive”. The Activity [8] was 21%, the Activity [9] was “Active” and the Activity [10] was “inactive”. The Activity [11] was “inactive”, the inhibition [12] was “Dose-dependent effect” and the Activity [13] was 20%. The Activity [1] was “Active”, the Activity [14] was 36% and the Activity [2] was 59%.
In the case of `CC(C)C[C@@H]1NC(=O)[C@H](CCCCN)NC(=O)[C@H](Cc2ccc(C(O)C(F)(F)F)cc2)NC(=O)[C@H](C(c2ccccc2)c2ccccc2)NC(=O)[C@H](C(C)C)NC1=O` (stereo not given in full) (cyclo([Dip][X1]KLV)), the inhibition [15] is reported as “Dose-dependent effect” and the Activity [16] is reported as 21%.

— ChEMBL document CHEMBL3596104, “Covalent modifier-type aggregation inhibitor of amyloid-β based on a cyclo-KLVFF motif” (Bioorg Med Chem Lett, 2015)
